Measurements: ChEMBL document CHEMBL1153259, “Spiroepoxycyclohexadienone dimers: cytotoxic bisalkylating agents” (Bioorg Med Chem Lett, 1993)

What was measured:
Assay type in all cases: functional, cell-based
[1] = system: A549; assay: Compound was tested for cytotoxicity on A549 lung adenocarcinoma cell line using a proliferation assay (MTT reduction); conditions: Homo sapiens
[2] = system: L1210; assay: Compound was tested for cytotoxicity on L1210 leukemia cell line using a proliferation assay (MTT reduction); conditions: Mus musculus
[3] = system: HT-29; assay: Compound was tested for cytotoxicity on HT-29 colon cancer cell line using a proliferation assay (MTT reduction); conditions: Homo sapiens
[4] = system: A549; assay: Compound was tested for cytotoxicity on A549 lung adenocarcinoma cell line using a proliferation assay (MTT reduction).; conditions: Homo sapiens

## O=C1C2C=CC(C3C2C2C/C(=N\Cc4ccccc4)[C@]3(O)CN2Cc2ccccc2)[C@@]12CO2 (stereo partly specified)
[1]
  IC50: > 28 µM
[2]
  IC50: > 28 µM
[3]
  IC50: 27 µM

## O[C@@H]1C=CC2C3C=CC(C2[C@@]12CO2)[C@@]1(CO1)[C@@H]3O (stereo partly specified)
[1]
  IC50: 31.5 µM
[2]
  IC50: 22.5 µM
[3]
  IC50: 17 µM

## COc1cccc2c1C(=O)c1c(O)c3c(c(O)c1C2=O)C[C@@](O)(C(=O)CO)C[C@@H]3O[C@H]1C[C@H](N)[C@H](O)[C@H](C)O1 [DOXORUBICIN]
[1]
  IC50: 0.1 µM
[2]
  IC50: 0.04 µM
[3]
  IC50: 0.12 µM

## O=C1C2C=CC(C3C2C=CC(=O)[C@]32CO2)[C@@]12CO2 (stereo partly specified)
[4]
  IC50: 0.75 µM
[2]
  IC50: 0.18 µM
[3]
  IC50: 0.3 µM

## COC1=CC2C(C3C=CC2(OC)C(=O)[C@]32CO2)[C@@]2(CO2)C1=O (stereo partly specified)
[1]
  IC50: 1.2 µM
[2]
  IC50: 1 µM
[3]
  IC50: 3.6 µM

## COC1=CC2C3C=CC(C2[C@@]2(CO2)C1=O)[C@@]1(CO1)C3=O (stereo partly specified)
[1]
  IC50: 17.5 µM
[2]
  IC50: > 36 µM
[3]
  IC50: 5.8 µM

## O[C@@H]1CCC2C3C=CC(C2[C@@]12CO2)[C@@]1(CO1)[C@@H]3O (stereo partly specified)
[1]
  IC50: 18 µM
[2]
  IC50: 19.5 µM
[3]
  IC50: 6 µM
